# Reference: patent US20240002350A1, “PROTEIN AND LIPID THERAPEUTIC TARGETS” (UNIVERSITY OF PITTSBURGH-OF THE COMMONWEALTH SYSTEM OF …, priority 2020, published 2024)
# System: 15LOX/PEBP1
# Test: Potency of 15LOX/PEBP1 inhibitors with anti-ferroptotic effect (Table 1)
# Type: cell-based
# Conditions: not given
# Excerpt: Development and testing of new compounds that inhibit 15LOX/PEBP1 complex activity. A combination of computational and experimental studies are used. […] Computer modeling considers specific features of organization of 15LOX/PEBP1 complexes and positioning of AA-PE as well as regio-specific oxygenation of AA-residues at 15th carbon. […] It has been shown that: i) binding interface of 15LOX in 15LOX/PEBP1 complex includes a helix on 15LOX (α2) and kinase binding epitope (D144, H145, R146) on PEBP1 (FIG. 8); and ii) interfacial interactions play a pivotal role in allosterically altering conformational dynamics of 15LOX in complex, and its substrate specificity. Analysis of change in access to catalytic site upon PEBP1 binding, using elastic network models indicates needed sites at 15LOX/PEBP1 binding interface. Dynamics simulations are also performed, for 15LOX alone and 15LOX/PEBP1 complex. An effective inhibitor, NCG-01, with in vivo activity has been indicated. Several other 15LOX/PEBP1 inhibitors with anti-ferroptotic effect (FIG. 9) have been identified. To test the effectiveness of compounds identified from the computational screen, RSL3 and mechanical stretch models with LDH and PI assays as a primary outcome are performed. The compounds that inhibit cell death by at least 50% are then evaluated for their effects on AA-PE and AA oxidation by 15LOX/PEBP1 complex and 15LOX alone, respectively, by LC-MS. Evaluation of the effect of compounds in suppressing AA-PE-OOH formation in cells upon proferroptotic stimuli is also performed.
row,SMILES,Potency
1,"Fc1cccc(-n2cc(-c3ccccc3)nc2SCc2ccc(C3(C(F)(F)F)N=N3)cc2)c1 [Compound 26, 1-(3-fluorophenyl)-4-phenyl-2-((4-(3-(trifluoromethyl)-3H-diazirin-3-yl)benzyl)thio)-1H-imidazole]",+ (+ > 1 μM)
2,"FC(F)(F)c1ccc(CSc2nc(-c3ccccc3)cn2-c2ccccc2)cc1 [Compound 20, 1,4-diphenyl-2-((4-(trifluoromethyl)benzyl)thio)-1H-imidazole]",+ (+ > 1 μM)
3,"Fc1cccc(-n2cc(-c3ccccc3)nc2NCc2ccc(Cl)cc2)c1 [Compound 59, N-(4-chlorobenzyl)-1-(3-fluorophenyl)-4-phenyl-1H-imidazol-2-amine]",++ (++ = 101-1000 nM)
4,"CC(C)(C)OC(=O)Nc1ccc(CSc2nc(-c3ccccc3)cn2-c2cccc(F)c2)cc1 [Compound 53, tert-butyl (4-(((1-(3-fluorophenyl)-4-phenyl-1H-imidazol-2-yl)thio)methyl)phenyl)carbamate]",+ (+ > 1 μM)
5,"Fc1cccc(-n2cc(-c3ccccc3)nc2SCc2cccc(Cl)c2)c1 [Compound 39, 2-((3-chlorobenzyl)thio)-1-(3-fluorophenyl)-4-phenyl-1H-imidazole]",+ (+ > 1 μM)
6,"Fc1cccc(-n2cc(-c3ccccc3)nc2NCc2ccc(C(F)(F)F)c(Cl)c2)c1 [Compound 68, N-(3-chloro-4-(trifluoromethyl)benzyl)-1-(3-fluorophenyl)-4-phenyl-1H-imidazol-2-amine]",++ (++ = 101-1000 nM)
7,"Fc1cccc(-n2cc(-c3ccccc3)nc2SCc2cccc(C(F)(F)F)c2)c1 [Compound 35, 1-(3-fluorophenyl)-4-phenyl-2-((3-(trifluoromethyl)benzyl)thio)-1H-imidazole]",+ (+ > 1 μM)
8,"CC(Sc1nc(-c2ccccc2)cn1-c1cccc(F)c1)c1ccc(C(F)(F)F)cc1 (centres unmarked) [Compound 54, 1-(3-fluorophenyl)-4-phenyl-2-((1-(4-(trifluoromethyl)phenyl)ethyl)thio)-1H-imidazole]",+ (+ > 1 μM)
9,"N#Cc1ccc(CSc2nc(-c3ccccc3)cn2-c2cccc(F)c2)cc1 [Compound 55, 4-(((1-(3-fluorophenyl)-4-phenyl-1H-imidazol-2-yl)thio)methyl)benzonitrile]",+ (+ > 1 μM)
10,"FC(F)(F)c1ccc(CSc2nc(-c3ccccc3)cn2-c2cccc(Cl)c2)cc1 [Compound 17, 1-(3-chlorophenyl)-4-phenyl-2-((4-(trifluoromethyl)benzyl)thio)-1H-imidazole]",+ (+ > 1 μM)
11,"Cc1cc(CNc2nc(-c3ccccc3)cn2-c2cccc(F)c2)ccc1C(F)(F)F [Compound 69, 1-(3-fluorophenyl)-N-(3-methyl-4-(trifluoromethyl)benzyl)-4-phenyl-1H-imidazol-2-amine]",++ (++ = 101-1000 nM)
12,"CC(C)(C)c1ccc(CSc2nc(-c3ccccc3)cn2-c2cccc(F)c2)cc1 [Compound 45, 2-((4-(tert-butyl)benzyl)thio)-1-(3-fluorophenyl)-4-phenyl-1H-imidazole]",+ (+ > 1 μM)
13,"FC(F)(F)c1ccc(CSc2nc(-c3ccccc3)cn2-c2ccc(Cl)cc2)cc1 [Compound 13, 1-(4-chlorophenyl)-4-phenyl-2-((4-(trifluoromethyl)benzyl)thio)-1H-imidazole]",+ (+ > 1 μM)
14,"Cc1cccc(-n2cc(-c3ccccc3)nc2SCc2ccc(C(F)(F)F)cc2)c1 [Compound 22, 4-phenyl-1-(m-tolyl)-2-((4-(trifluoromethyl)benzyl)thio)-1H-imidazole]",+ (+ > 1 μM)
15,"Fc1cccc(-n2cc(-c3ccccc3)nc2SCc2ccccc2C(F)(F)F)c1 [Compound 41, 1-(3-fluorophenyl)-4-phenyl-2-((2-(trifluoromethyl)benzyl)thio)-1H-imidazole]",+ (+ > 1 μM)
16,"Cc1ccc(-n2cc(-c3ccccc3)nc2SCc2ccc(C(F)(F)F)cc2)cc1 [Compound 16, 4-phenyl-1-(p-tolyl)-2-((4-(trifluoromethyl)benzyl)thio)-1H-imidazole]",+ (+ > 1 μM)
17,"Fc1cccc(-n2cc(-c3ccc(Br)cc3)nc2SCc2ccccc2)c1 [Compound 27, 2-(benzylthio)-4-(4-bromophenyl)-1-(3-fluorophenyl)-1H-imidazole]",+ (+ > 1 μM)
18,"Fc1cccc(-n2cc(-c3ccccc3)nc2SCc2ccc(OC(F)(F)F)cc2)c1 [Compound 36, 1-(3-fluorophenyl)-4-phenyl-2-((4-(trifluoromethoxy)benzyl)thio)-1H-imidazole]",+ (+ > 1 μM)
19,"Fc1cccc(-n2cc(-c3ccccc3)nc2NCc2cccc(C(F)(F)F)c2)c1 [Compound 63, 1-(3-fluorophenyl)-4-phenyl-N-(3-(trifluoromethyl)benzyl)-1H-imidazol-2-amine]",++ (++ = 101-1000 nM)

# System: PND17 rats
# Test: Controlled cortical impact (CCI) TBI model in PND17 rats
# Type: in vivo, rat
# Conditions: 50 mg/kg i.p. 15 min after CCI
# Experimental: (§1) Time course studies (0, 4, 8, 24 and 72 h) of TBI-induced changes in i) PE oxidation (oxidative lipidomics); ii) expression and activity of 15LOX, PEBP1, ACSL4, LPCAT3, iPLA2β and GPX4 (western blot); iii) formation of 15LOX/PEBP1 complexes (dual object recognition); and iv) GSH levels (fluorescent assay) will be performed as follows. An established model of in vitro TBI, severe mechanical stretch injury in primary cortical neurons, can be used. In brief, cortical neurons are cultured on 0.05% poly-D-lysine hydrobromide coated silicone substrate wells, and subjected to a computer controlled quantifiable mechanical insult by displacing the silicone substrate over a hollowed platform. In vivo TBI is induced by severe CCI (6-mm impactor tip, velocity of ±0.2 m/secs, deformation depth of 2.5 mm, impact duration of 50 msecs) to left parietal cortex in male and female PND 17 rats. To maximize rigor and reproducibility, animals are assigned to either sham (anesthesia and craniotomy) or CCI groups by block randomization. To ensure appropriate sample size for robustness, power analyses are performed in each experimental context. A sample size of 5 is preferred to detect a 25% difference in PE-OOH between CCI and control based on standard deviation observed in the experiments with an alpha of 0.05 and power of 0.80. Group assignments are blinded to the investigators who perform biochemical and histological endpoints. Statistical differences are analyzed using one-way ANOVA with post-hoc comparisons between groups if overall p<0.05 as appropriate. To address biological variability, both sexes are included.
# Histological outcome assessment. Brains are quantitatively analyzed for total number of specific cell types and lesion volume using unbiased stereology as described. Diagnostic of ferroptosis in vivo are: 1) accumulation of doubly and triply oxygenated AA-PE species; 2) increased ACSL4; 3) decreased GPX4 activity or deficiency of GSH; 4) increased activity and expression of 15LOX; and 5) high levels of 15LOX-PEBP1 co-localization detectable by dual object recognition. […] TUNEL staining is used to quantify cell death. TUNEL is commonly used to detect apoptotic cells. However, cells undergoing other types of regulated death, including ferroptosis, are also TUNEL positive. In order to determine the apoptotic cell death, staining with cleaved caspase-3 antibody is performed.
# Neurocognitive function is assessed by novel object recognition (NOR) and MWM (Morris Water Maze) tests. For NOR testing, rat is placed in a small enclosure with two similar objects and allowed to explore for a 35 min habituation phase. […] Percent time exploring original vs. novel object is recorded (2 min max). […] Visible platform performance and memory retention in a single probe trial on d17 are assessed. […]
SMILES,AA-PE oxidation,functional deficits in MWM task,hippocampal TUNEL positivity
O=c1cc(-c2ccccc2)oc2cc(O)c(O)c(O)c12 [baicalein],decreased,attenuated,attenuated

# Same assay, conditions: i.c.v. administration after CCI, 24 h post-CCI
row,SMILES,neurodegeneration assessed by FJB positivity
1,CCC/C=C/C/C=C/C=C/C=N/NN=O [Triacsin C],attenuated neurodegeneration

# System: neurons
# Test: Severe mechanical stretch injury in neurons
# Type: cell-based, rat
# Conditions: 3-4 psi; Fer-1 0.4 μM, Triacsin C 10 μM, baicalein 5 μM
# Experimental: Mean+SD, N=4/group, *p<0.05 vs 0 h. […] Mean±SD, N=3-4/group, *p<0.05 vs control, #p<0.05 vs vehicle. […] Mean+SD, N=4/group, *p<0.05 vs vehicle.
# as §1
row,SMILES,cell death after severe mechanical stretch injury
1,CCOC(=O)c1ccc(NC2CCCCC2)c(N)c1 [Fer-1],rescued
2,O=c1cc(-c2ccccc2)oc2cc(O)c(O)c(O)c12 [baicalein],rescued
3,CCC/C=C/C/C=C/C=C/C=N/NN=O [Triacsin C],rescued
